The values below come from patent US20130150354A1, “NEW SELECTIVE CCR2 ANTAGONISTS” (BOEHRINGER INGELHEIM INTERNATIONAL GMBH, priority 2011, published 2013).

SMILES strings stand for the structures.

In one assay the target is T1, CCR2 (Homo sapiens, UniProt P41597).
T1 construct: Membranes were prepared from THP-1 cells; endogenous in cells; host or cells: THP-1 (human acute monocytic leukaemia cells), membrane preparation
T1 sequence (P41597 1-360 isoform P41597-2): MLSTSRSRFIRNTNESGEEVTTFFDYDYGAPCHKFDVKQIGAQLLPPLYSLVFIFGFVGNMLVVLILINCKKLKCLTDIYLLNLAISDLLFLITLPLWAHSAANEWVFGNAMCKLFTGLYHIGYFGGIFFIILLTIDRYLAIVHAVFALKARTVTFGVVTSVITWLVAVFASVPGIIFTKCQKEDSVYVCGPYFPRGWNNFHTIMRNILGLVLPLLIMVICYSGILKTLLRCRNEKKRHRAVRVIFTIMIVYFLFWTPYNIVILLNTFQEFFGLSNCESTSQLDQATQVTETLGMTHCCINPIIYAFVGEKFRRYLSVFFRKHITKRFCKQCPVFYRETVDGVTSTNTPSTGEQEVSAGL
Nature of the assay: CCR2 receptor membrane binding assay (THP-1 membranes, 125I-MCP-1, SPA beads). The following applies: THP-1 cell membranes, 125I-MCP-1, 8 h; read-out: hKi [nM] (CCR2). Here is the method: The above exemplary substances have been tested for binding to CCR2 using a binding assay as outlined herein below:
THP-1 cells (human acute monocytic leukaemia cells) were cultured under standardized conditions at 37° C. and 5% CO2 in a humidified incubator. THP-1 cells were cultivated in RPMI 1640 medium (Gibco 21875) containing 1% MEM-NEAA (Gibso 11140) 2 mM L-glutamine, 1.5 g/L sodium bicarbonate, 4.5 g/L glucose, 10 mM HEPES and 1.0 mM sodium pyruvate, 90%; 10% fetal calf serum (FCS Gibco 10500-064).
Membranes were prepared from THP-1 cells. THP-1 cells were centrifuged at 300×g at 4° C. for 10 min. The cell pellet was resuspendet in Phosphate Buffer Saline (PBS, including 10 μM Pefabloc and a protease inhibitor mix ‘complete’, Boehringer Mannheim (1 tablet/50 ml)), to a concentration of […]. The membrane preparation was performed by disrupting the cells by nitrogen […] (at 50 bar, for 1 h) in a “Nitrogen Bombe” (Parr Instrument). Cell debris was removed by centrifugation (800×g at 4° C., 1 min). The supernatant was centrifuged at 80000×g, 4° C. for 30 min to sediment the cell membranes. Usually 50 mg of protein (Bradford assay) were yielded from 1×10E9 cells. The membranes were resuspendet in 25 mM HEPES, 25 mM MgCl2, 1 mM CaCl2, 10% Glycerine for storage in aliquots at −80° C. in 25 mM HEPES, 25 mM MgCl2, 1 mM CaCl2, 10% Glycerine and stored at −80° C.
Perkin Elmer NEX 332 Jod^125 MCP-1, Stock: 2200 Ci/mmol solved in 2000 μl assay buffer, stored at −20° C. THP-1 membrane were adjusted with 25 mM HEPES, pH 7.2; 5 mM MgCl2; 0.5 mM CaCl2; 0.2% BSA assay buffer to a concentration of 2.5 μg/15 μl. Amersham Biosciences PVT-WGA Beads (RPNQ0001) were adjusted with assay buffer to a concentration of 0.24 mg/30 μl. For preparation of the membrane-bead-suspension membranes and beads were incubated for 30 min at RT under rotation (60 rpm) with a ratio of 1:2. Test compounds dissolved in 100% DMSO to a concentration of 10 mM and are further diluted with 100% DMSO to 1 mM. All additional compound dilutions were obtained with assay buffer, final 1% DMSO. Compounds, membrane-bead-suspension and [^125]MCP-1 (ca. 25000 cpm/10 μl) were incubated. Bound radioactivity was determined by scintillation counter after 8 h. Determination of affinity of test compounds (dissociation constant hKi) is calculated by iterative fitting of experimental data using the “easy sys” program, which is based on law of mass action (Schittkowski K. (1994), Numerische Mathematik, Vol. 68, 129-142).

For a further assay, the target named is T2, human CCR5 (Homo sapiens, UniProt P51681).
T2 construct: expressed in transfected cells; host or cells: CHO cells co-expressing Gα16, grown under puromycin and zeocin selection; membrane preparation
Nature of the assay: CCR5 receptor membrane binding assay (CHO (Gα16) human CCR5 membranes, [125I]RANTES, SPA beads). As to conditions: 6 h, read-out: hKi [nM] (CCR5). Here is the method: The above exemplary substances have been tested for binding to CCR5 using a binding assay as outlined herein below:
CHO, (Gα16) human CCR5 cells were cultured under standardized conditions at 37° C. and 5% CO2 in a humidified incubator. CHO (Gα16) human CCR5 cells were cultivated in Ham's F12 (Invitrogen; #31765068) supplemented with 10 µg/ml Puromycin (Invitrogen; #A11139-03), 200 µg/ml Zeocin (Invitrogen; #45-0003) and 10% FCS (Gibco; #10500-064).
Membranes were prepared from CHO (Gα16) human CCR5 cells. Cells were cultured on […] plates (Nunc; #166508) 2-3 days before membrane preparation (usually 80-100 plates to obtain 80 mg protein).
Cells were scraped off the plates with a big scraper and washed with 2×5 ml ice cold Phosphate Buffer Saline (PBS; Invitrogen; #14040-174). Cell suspension was collected in a glass bottle (on ice). Cell suspension was harvested at 1400 rpm and 4° C. for 10 min and washed in PBS. Cell pellet was resuspended in 40 ml PBS with protease inhibitor mix ‘complete’ (Roche; #11873580001; 1 tablet/50 ml).
For gentle cell disruption the membrane preparation was performed by using a homogenizer (potter). Cells were homogenized for 5-10 min.
Membranes were centrifuged at 1000 rpm and 4° C. for 5 min. Supernatant (=membrane) was harvested in a new falcon tube and remaining cell pellet homogenized again for 5-10 min with PBS with protease inhibitor mix and centrifuged. Collected supernatant was centrifuged at 40000 rpm and 4° C. for 30 min to sediment the cell membranes.
The membranes were resuspended in 25 mM HEPES, 25 mM MgCl2, 1 mM CaCl2, 10% Glycerine for storage in aliquots at −80° C. Membranes were diluted to a concentration of 5 mg/ml (Bradford Assay).
[^125I]RANTES, Stock: 1825 Ci/mmol, 25 μCi (Bio Trend #A3-AI-676) was solved in 1000 μl assay buffer (100 mM NaCl; 10 mM MgCl2; 50 mM Tris-HCl; 1 mM EDTA; 0.1% BSA, pH 7.6), stored at −20° C.
CHO (Gα16) human CCR5 membrane were solved on ice and adjusted with assay buffer to a concentration of 2.5 μg/15 μl.
Amersham Biosciences PVT-WGA Beads (GE Healthcare; #RPNQ0001) were adjusted with assay buffer to a concentration of 8 mg/ml. For preparation of the membrane-bead-suspension, membranes and beads were incubated for 30 min at RT under rotation with a ratio of 1:2.
Test compounds dissolved in 100% DMSO to a concentration of 10 mM and are further diluted with 100% DMSO to 1 mM. All additional compound dilutions were obtained with assay buffer, final 1% DMSO. 7 μl compound dilution, 45 μl membrane-bead-suspension and 10 μl [^125I]RANTES (ca. 20000 cpm/10 μl) were incubated at RT. Bound radioactivity was determined by scintillation counter after 6 h. Determination of affinity of test compounds (dissociation constant Ki) is calculated by iterative fitting of experimental data using the “easy sys” program, which is based on law of mass action (Schittkowski K. (1994), Numerische Mathematik, Vol. 68, 129-142).

T2 sequence (P51681 whole entry): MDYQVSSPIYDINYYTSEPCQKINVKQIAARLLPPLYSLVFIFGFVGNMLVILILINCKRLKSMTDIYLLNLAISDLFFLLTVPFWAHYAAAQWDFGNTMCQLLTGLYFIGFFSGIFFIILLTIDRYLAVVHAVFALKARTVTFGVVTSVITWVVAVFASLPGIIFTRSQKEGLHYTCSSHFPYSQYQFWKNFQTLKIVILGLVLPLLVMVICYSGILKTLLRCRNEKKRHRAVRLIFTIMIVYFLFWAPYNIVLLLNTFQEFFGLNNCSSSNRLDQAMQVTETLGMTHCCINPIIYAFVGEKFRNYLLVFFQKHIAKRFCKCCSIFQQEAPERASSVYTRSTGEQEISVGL

Regarding `Cc1c(Nc2cccc(C(F)(F)F)c2)nc(C2CC2)nc1C(=O)N1CCC(N2CCO[C@H]3COCC[C@H]32)CC1` [Example 29], the Ki was 1 nM on CCR2 and 960 nM on human CCR5.
Consider `Cc1nc(Nc2cccc(C(F)(F)F)c2)c(C)c(C(=O)N2CCC(N3CCO[C@H]4COCC[C@H]43)CC2)n1` [Example 30], for which the Ki at CCR2 was 9 nM; at human CCR5, 1000 nM.
Regarding `Cc1ccc2c(c1)CN(c1nc(C)nc(C(=O)N3CCC(N4CCO[C@H]5COCC[C@H]54)CC3)c1C)CC2` [Example 31], the Ki at CCR2 was 67 nM; at human CCR5 it was 7010 nM.
In the case of `Cc1c(C(=O)N2CCC(N3CC4COCC4C3)CC2)ncnc1N1CCc2ccc(C(F)(F)F)cc2C1` (stereo not shown) [Example 32], the figures for the Ki at CCR2 and on human CCR5 were 80 nM and 5310 nM, respectively.
Take `Cc1c(NCc2ccc(C(C)(C)C)cc2)ncnc1C(=O)N1CCC(N2CC3CN(S(C)(=O)=O)CC3C2)CC1` (stereo not shown) [Example 42]: the Ki was 11 nM at CCR2 and 1820 nM at human CCR5.
Consider `Cc1c(NC[C@H]2CCC[C@@H](c3ccccc3)C2)ncnc1C(=O)N1CCC(N2CC3CN(S(C)(=O)=O)CC3C2)CC1` (stereo partly shown) [Example 43], for which the Ki on CCR2 was 1 nM; at human CCR5, 43 nM.
In the case of `Cc1c(NC[C@H]2CCC[C@@H](c3ccccc3)C2)ncnc1C(=O)N1CCC(N2CC3COCC3C2)CC1` (stereo partly shown) [Example 44], the results for the Ki at CCR2 and on human CCR5 were 7 nM and 65 nM, respectively.
With `Cc1c(NCc2ccc(C(C)(C)C)cc2)ncnc1C(=O)N1CCC(N2CC3COCC3C2)CC1` (stereo not shown) [Example 45], the Ki at CCR2 was determined as 36 nM; on human CCR5, 4110 nM.
